Tests used:
[1] = Description: Aliquots of the PBS only curve were quenched at time zero to be used as stability controls and calibration standards. Following centrifugation, samples were analyzed by LC-MS/MS bioanalysis. Back-calculated concentrations using the assay PBS curve were used for binding and stability calculations.
ocular hyperemia = experiment: Reducing eye redness in rabbits (naive and povidone iodine induced hyperemia model); format: in vivo, New Zealand White rabbits
Description: In this study, Applicant evaluated the compound of Formula I on ocular hyperemia (i.e., eye redness).
The modified Hackett-McDonald Scoring scale (Table 1) was used to assess hyperemia, discomfort, conjunctival swelling and discharge. Ocular imaging was conducted via a Haag-Streit B slit lamp. Effects of these compounds were first evaluated in naïve animals following baseline measurements and then assessed in a povidone iodine induced hyperemia model.
Animals: This study was conducted in female New Zealand White rabbits (Covance) weighing approximately 2-4 kg upon arrival.
This effect can be utilized as a transient hyperemia model to evaluate for potential blanching of blood vessels and rapid reduction of hyperemia. The ocular surface was anesthetized with drops of 0.5% proparacaine. The eye was then irrigated with 5% povidone iodine ophthalmic solution and left on the ocular surface for at least 2 minutes to ensure the solution completely covers the eye. The periocular region was also wiped with povidone solution. Following 2 minutes post-irrigation, the eye was rinsed with sterile saline until the rinsed solution runs clear. Hyperemia at baseline and post ocular topical treatment was assessed via the modified Hackett-McDonald Scoring Scale shown in Table 1 above.
Ocular imaging: A Haag-Streit BP 900 slitlamp was used to evaluate the anterior segment of the eye (e.g., corneal integrity and cells in the aqueous humor). Pupils were dilated by applying drops of 1% cyclopentolate and 10% phenylephrine to the ocular surface. Ocular imaging was conducted in awake and/or anesthetized animals (7.5-10 mg/kg Ketamine/1-10 mg/kg Xylazine).

pupil diameter = experiment: In vivo rabbit miosis model; design: species or system Dutch Belted rabbits; conditions: for miotic efficacy compared with brimonidine: single topical dose, low-light conditions, FIG. 4 to FIG. 7
Description: Female Dutch Belted rabbits (Covance, Princeton, New Jersey) weighing between 2-4 kg were used for these studies. […] For topical dosing, eye drops (volume=35 μl) were instilled into the lower conjunctival sac of the test eye.
Pupil diameter was measured in both the treated and untreated eye with an Optistick to the nearest 0.5 mm. […]

eye redness = experiment: Treatment of red eye (patient cases); format: in vivo, human; conditions: person
Excerpt: A person complains about eye redness caused by seasonal allergies. A physician identifies the patient as having an OSH score of +2, and instructs them to administer to both of their eyes a composition comprising a compound of Formula I once or twice a day. Within the first day of administering the compound of Formula I, the patient reports decreased eye redness despite having on-going seasonal allergies, and their physician identifies the patient as having an OSH score of +0.5.
A person without any underlying health problems notices their eyes are red, making them appear tired at work. They administer to both of their eyes a composition comprising a compound of Formula I in order to increase the whiteness of their eyes for cosmetic reasons.
A person complains to their doctor that they suffer from red eyes due to minor eye irritations. The doctor prescribes a composition comprising a compound of Formula I and instructs them to administer the composition once or twice a day. The doctor also tells the person that many other marketed compositions for reducing eye redness are associated with side effects such as rebound hyperemia, dependency, and/or tachyphylaxis and that the person should report any such side effects.
Upon recommendation from a friend, they ask their doctor about possibly switching to a composition comprising the compound of Formula I since their friend told them that it works faster than brimonidine.

pupil size = conditions: brimonidine tartrate ophthalmic solution 0.2%, presbyopic patients, different lighting conditions (McDonald II et al.); cited from earlier work
[2] = after 6 hours, 0.1% w:v, FIG. 7

## Cc1c(N=C2NCCN2)ccc2[nH]cnc12 [Compound 1]
[1]
  melanin binding (in words): no significant melanin binding
Ocular hyperemia; 0.03% composition, FIG. 3
  hyperemia reduction on digital redness scale compared with LUMIFY: performed better than LUMIFY®
  time post treatment of significant reduction in hyperemia: ≤ 1 min
Ocular hyperemia; 0.03% composition, single eye drop (~35 μl), FIG. 1 and FIG. 2
  efficacy on ocular hyperemia compared with LUMIFY: significantly greater efficacy on ocular hyperemia than LUMIFY®
Ocular hyperemia; score including hyperemia, discomfort, conjunctival swelling and discharge
  reduction in the Modified Hackett-McDonald Score compared with LUMIFY: greater reduction in the Modified Hackett-McDonal Score
Pupil diameter; 0.1% w:v, n=6, scotopic condition (<10 lux), FIG. 7
  responder analysis of rabbits with >2.5 mm pupil change: more efficacious than brimonidine
Pupil diameter; FIG. 7 and FIGS. 5 and 6
  magnitude of pupil size reduction compared with brimonidine: greater magnitude of pupil size reduction and therapeutic activity when compared to brimonidine
Pupil diameter; FIG. 9
  pupil constriction over 9 hours: significant pupil constriction even at 9 hours after dosing
Pupil diameter; FIG. 10
  effect on pupil constriction compared with Compound 3: greater effect on pupil constriction when compared to Compound 3
Pupil diameter; Scotopic condition (<10 lux), FIG. 6
  dose miotic response: very potent dose miotic response
Pupil diameter; [2]
  animals with greater than 2.5 mm reduction in pupil size from baseline: more than half
Pupil diameter; rabbit, in vivo
  miotic effect compared with other alpha adrenergic receptor agonists including brimonidine: best miotic effect
Pupil diameter; room lighting conditions, FIG. 8
  miotic action (peak pupil constriction and duration of action): greater miotic action than brimonidine
Pupil diameter; two hours after dosing, 0.1% w:v, FIG. 7
  animals with greater than 2.5 mm reduction in pupil size from baseline: virtually all animals
Eye redness
  onset of eye redness reduction: more effective in reducing eye redness in quite a bit less than a minute and faster than the brimonidine composition
Eye redness; cosmetic use, both eyes
  whiteness of the eyes: noticeably whiter
Eye redness; minor eye irritations, once or twice a day, a few weeks
  eye redness: no longer as red as they used to be
Eye redness; once or twice a day, a few weeks
  rebound hyperemia, dependency, tachyphylaxis: has not observed any of the rebound hyperemia, dependency, or tachyphylaxis
Eye redness; seasonal allergies, baseline +2, within the first day, scale of Table 2
  OSH score: +0.5

## CCc1c(N=C2NCCN2)ccc2[nH]cnc12 [Compound 2, reference compound]
Pupil diameter
  miotic efficacy compared with brimonidine: much less than brimonidine

## Brc1c(N=C2NCCN2)ccc2[nH]cnc12 [Compound 3, reference compound]
Pupil diameter
  miotic efficacy compared with brimonidine: much less than brimonidine

## Brc1c(NC2=NCCN2)ccc2nccnc12 [Compound 4, brimonidine, reference compound]
[1]
  melanin binding (in words): much more significant binding
Pupil diameter; a half hour after dosing, 0.1% w:v, FIG. 7
  animals with greater than 2.5 mm reduction in pupil size from baseline: much less than half
Pupil diameter; [2]
  animals with greater than 2.5 mm reduction in pupil size from baseline: virtually none
Eye redness
  onset of eye redness reduction: takes effect in less than a minute
Pupil size
  average pupil size: 3.4 mm

— US20240390330A1, “ALPHA-2-ADRENERGIC RECEPTOR AGONISTS FOR REDUCING REDNESS AND INCREASING WHITENESS IN EYES AND OTHER OPHTHALMIC PURPOSES” (Allergan, Inc., priority 2020, published 2024)
